Results from PMC10758781 (Heliyon, 2023).
Read-outs that look alike come from different tables or passages of the source. *1 amine or outer side, *2 acyl side, *3 side chain or, on linkers, in order; H or OH if unused. Where a SMILES comes first, the peptide text is derived from it. Bridges are numbered along the chain shown (N, C = ends). Roman numbers before positions name the chains, in order. [ ]: non-standard residue; d: D form. Actinocin(9to1) = Cc1c2oc3c(C)ccc(C(=O)[*:1])c3nc-2c(C(=O)[*:2])c(N)c1=O; NMeV = CN[C@H](C(=O)O)C(C)C; Sar = CNCC(=O)O

Assays:
ERβ [1] = target: T1, ERβ (Homo sapiens, UniProt Q92731); assay type: cell-based; conditions: for effect on array size and dsRED2 features (in words): EPA45 library, 6-point dose-response; for activity in GFP-ERβ:PRL-HeLa, EPA45 batch received: first batch of EPA45 chemicals
T1 sequence (Q92731 whole entry): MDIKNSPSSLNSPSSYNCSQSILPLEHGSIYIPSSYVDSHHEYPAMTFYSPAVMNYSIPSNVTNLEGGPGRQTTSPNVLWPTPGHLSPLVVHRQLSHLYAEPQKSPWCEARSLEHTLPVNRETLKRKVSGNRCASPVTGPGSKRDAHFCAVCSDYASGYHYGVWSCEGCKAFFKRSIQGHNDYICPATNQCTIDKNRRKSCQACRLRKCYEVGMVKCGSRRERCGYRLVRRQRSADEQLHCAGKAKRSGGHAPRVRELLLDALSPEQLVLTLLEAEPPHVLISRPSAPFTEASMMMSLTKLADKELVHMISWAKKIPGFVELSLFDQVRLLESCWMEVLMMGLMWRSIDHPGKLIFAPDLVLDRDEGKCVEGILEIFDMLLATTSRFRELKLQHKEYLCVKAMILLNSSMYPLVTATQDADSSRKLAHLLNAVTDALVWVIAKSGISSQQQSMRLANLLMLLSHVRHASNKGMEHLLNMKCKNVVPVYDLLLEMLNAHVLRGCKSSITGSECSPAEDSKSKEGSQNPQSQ

ERβ [2] = target: T1, ERβ; assay type: cell-based; conditions: for decrease of E2-induced stimulation of dsRED2 mRNA / decrease of basal dsRED2 mRNA transcription: 2-h, 4HT, ICI, PHTTP 1 μM, ActD 1 μg/ml, Flavo 100 nM; for decrease of E2-induced stimulation of dsRED2 mRNA: plus E2 10 nM; for decrease of basal dsRED2 mRNA transcription: without E2
zERα = target: T2, zERα (Danio rerio, UniProt P57717); assay type: in vivo, zebrafish; conditions: 3 dpf
T2 sequence (P57717 1-569): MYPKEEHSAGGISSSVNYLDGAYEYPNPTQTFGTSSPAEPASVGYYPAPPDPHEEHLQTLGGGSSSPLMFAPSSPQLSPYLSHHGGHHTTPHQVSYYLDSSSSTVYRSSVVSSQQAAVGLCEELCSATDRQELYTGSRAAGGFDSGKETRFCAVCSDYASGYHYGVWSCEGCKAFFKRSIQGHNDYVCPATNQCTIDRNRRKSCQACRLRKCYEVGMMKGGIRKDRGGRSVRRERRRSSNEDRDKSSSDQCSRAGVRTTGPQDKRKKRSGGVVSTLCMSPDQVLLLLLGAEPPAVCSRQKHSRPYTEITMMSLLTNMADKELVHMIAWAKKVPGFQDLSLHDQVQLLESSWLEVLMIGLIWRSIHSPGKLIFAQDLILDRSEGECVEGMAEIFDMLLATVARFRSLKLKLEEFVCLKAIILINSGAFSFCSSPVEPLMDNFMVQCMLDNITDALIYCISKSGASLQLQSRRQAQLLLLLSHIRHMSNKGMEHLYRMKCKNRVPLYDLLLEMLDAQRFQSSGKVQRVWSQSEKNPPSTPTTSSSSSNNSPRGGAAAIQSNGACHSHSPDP

zERβ2 = assay type: in vivo, zebrafish; conditions: 3 dpf; for Liver GFP signal, number of zebrafish: total fish in next column
[3] = system: zebrafish ERs (zERα, zERβ1, and zERβ2); assay type: in vivo; conditions: 3 dpf
zebrafish = conditions: 3 dpf; for Toxicity, number of zebrafish: total fish in next column
ERβ LBD = ERβ LBD only, without NLS; ref ToxCast [23]; cited from earlier work
[4] = system: zebrafish ERs (zERα, zERβ1, and zERβ2); conditions: read-out: EC50 in ERE:GFP zebrafish; previously published results; ref [36],[37]; cited from earlier work
[5] = time course, E2 10 nM, 4HT 100 nM
[6] = both concentrations tested (2 and 20 μM)

CC/C(=C(\c1ccc(O)cc1)c1ccc(OCCN(C)C)cc1)c1ccccc1 [4HT, 4-Hydroxytamoxifen]
Z-prime, Array Size (ERβ [1]; 384 well plates, four technical and four biological replicates): 0.61 ± 0.13 | change in array size vs DMSO (in words) (ERβ [1]; [5]): decreasing it | change in nuclear GFP-ERβ levels (in words) (ERβ [1]; [5]): increase in GFP-ERβ signal within the nucleus | decrease of E2-induced stimulation of dsRED2 mRNA (ERβ [2]): > 2 fold | decrease of basal dsRED2 mRNA transcription (ERβ [2]): > 2 fold | intensity of dsRED2 RNA signal at the array (in words) (ERβ [2]; 4HT 100 nM, vs DMSO): diminishing significantly

C[C@]12C[C@H](O)[C@H]3[C@@H](CCC4=CC(=O)CC[C@@]43C)[C@@H]1CC[C@@H]2C(=O)CO [Corticosterone]
effect on array size and dsRED2 features (in words) (ERβ [1]; 2-h): showed response in both features | Heart (zERα/hERβ), zebrafish with GFP signal / total (zERα; 2 μM): 18/18 | Heart (zERα/hERβ), zebrafish with GFP signal / total (zERα; 20 μM): 16/18 | Liver (zERβ/hERα), zebrafish with GFP signal / total (zERβ2; 2 μM): 18/18 | Liver (zERβ/hERα), zebrafish with GFP signal / total (zERβ2; 20 μM): 16/18 | tissue GFP signal (in words) [3, 6]: showed GFP signal in both the liver and heart valve | Dead/Abnormal zebrafish / total (zebrafish; 2 μM): 0/18 | Dead/Abnormal zebrafish / total (zebrafish; 20 μM): 2/18 | activity in BiFC ERβ dimerization assay (ERβ LBD): no effect

C[C@@H]1C[C@@H]([C@H](O)CC2CC(=O)NC(=O)C2)C(=O)[C@@H](C)C1 [Cycloheximide]
effect on array size and dsRED2 features (in words) (ERβ [1]; 2-h): showed response in both features | Liver (zERβ/hERα), zebrafish with GFP signal / total (zERβ2; 2 μM): 0/18 | Liver (zERβ/hERα), zebrafish with GFP signal / total (zERβ2; 20 μM): 1/18 | Dead/Abnormal zebrafish / total (zebrafish; 2 μM): 0/18 | Dead/Abnormal zebrafish / total (zebrafish; 20 μM): 8/18 | toxicity in zebrafish (in words) (zebrafish; 2 and 20 μM): mostly toxic | activity in BiFC ERβ dimerization assay (ERβ LBD): no effect

C[C@]12CC[C@@H]3c4ccc(O)cc4CC[C@H]3[C@@H]1CC[C@@H]2O [E2, Estradiol (17-β)]
increase of intensity of dsRED2 RNA signal at the array (ERβ [2]; E2 10 nM, vs DMSO): ~3 fold | Liver GFP signal, number of zebrafish (zERβ2; 1 nM): 0 | Liver GFP signal, number of zebrafish (zERβ2; 10 nM): 10 | Liver GFP signal, number of zebrafish (zERβ2; 100 nM): 12 | lowest concentration inducing GFP signal in both heart valve and liver [3]: 10 nM | Toxicity, number of zebrafish (zebrafish; 1 nM): 0 | Toxicity, number of zebrafish (zebrafish; 10 nM): 0 | Toxicity, number of zebrafish (zebrafish; 100 nM): 0 | EC50 [4]: 3 to 5 nM

C[C@]12CC[C@@H]3c4ccc(O)cc4C[C@@H](CCCCCCCCC[S+]([O-])CCCC(F)(F)C(F)(F)F)[C@H]3[C@@H]1CC[C@@H]2O (some centres unmarked) [ICI182,780, ICI 182,780]
decrease of E2-induced stimulation of dsRED2 mRNA (ERβ [2]): > 2 fold | decrease of basal dsRED2 mRNA transcription (ERβ [2]): > 2 fold

O=c1c(O)c(-c2ccc(O)cc2)oc2cc(O)cc(O)c12 [Kaempferol]
Liver (zERβ/hERα), zebrafish with GFP signal / total (zERβ2; 2 μM): 0/18 | Liver (zERβ/hERα), zebrafish with GFP signal / total (zERβ2; 20 μM): 0/18 | Dead/Abnormal zebrafish / total (zebrafish; 2 μM): 0/18 | Dead/Abnormal zebrafish / total (zebrafish; 20 μM): 0/18

O=C1C2(Cl)C3(Cl)C4(Cl)C(Cl)(Cl)C5(Cl)C3(Cl)C1(Cl)C5(Cl)C24Cl (centres unmarked) [Kepone]
Liver (zERβ/hERα), zebrafish with GFP signal / total (zERβ2; 2 μM): 0/18 | Liver (zERβ/hERα), zebrafish with GFP signal / total (zERβ2; 20 μM): 0/18 | Dead/Abnormal zebrafish / total (zebrafish; 2 μM): 0/18 | Dead/Abnormal zebrafish / total (zebrafish; 20 μM): 0/18

Oc1ccc(-c2c(-c3ccccc3)nn3c(C(F)(F)F)cc(C(F)(F)F)nc23)cc1 [PHTTP, 4-[2-phenyl-5,7-bis(trifluoromethyl)pyrazolo[1,5-a]pyrimidin-3-yl]phenol]
ER subtype preference across array metrics (ERβ [1]; GFP-ERβ:PRL-HeLa vs GFP-ERα:PRL-HeLa, 2-h, 10pM to 1 μM): preference for ERβ | decrease of E2-induced stimulation of dsRED2 mRNA (ERβ [2]): > 2 fold | decrease of basal dsRED2 mRNA transcription (ERβ [2]): > 2 fold

CCC1(c2ccccc2)C(=O)NC(=O)NC1=O [Phenobarbital sodium]
effect on array size and dsRED2 features (in words) (ERβ [1]; 2-h): showed response in both features | Heart (zERα/hERβ), zebrafish with GFP signal / total (zERα; 2 μM): 17/18 | Heart (zERα/hERβ), zebrafish with GFP signal / total (zERα; 20 μM): 14/18 | Liver (zERβ/hERα), zebrafish with GFP signal / total (zERβ2; 2 μM): 16/18 | Liver (zERβ/hERα), zebrafish with GFP signal / total (zERβ2; 20 μM): 16/18 | tissue GFP signal (in words) [3, 6]: showed GFP signal in both the liver and heart valve | Dead/Abnormal zebrafish / total (zebrafish; 2 μM): 1/18 | Dead/Abnormal zebrafish / total (zebrafish; 20 μM): 1/18 | activity in BiFC ERβ dimerization assay (ERβ LBD): no effect

Cc1c2oc3c(C)ccc(C(=O)N[C@@H]4C(=O)N[C@H](C(C)C)C(=O)N5CCC[C@H]5C(=O)N(C)CC(=O)N(C)[C@@H](C(C)C)C(=O)O[C@@H]4C)c3nc-2c(C(=O)N[C@@H]2C(=O)N[C@H](C(C)C)C(=O)N3CCC[C@H]3C(=O)N(C)CC(=O)N(C)[C@@H](C(C)C)C(=O)O[C@@H]2C)c(N)c1=O [actinomycin D] (I: T[dV]P[Sar][NMeV] / II: T[dV]P[Sar][NMeV]; ester I:1-I:C, II:1-II:C; linker I:N-II:N via Actinocin(9to1))
decrease of E2-induced stimulation of dsRED2 mRNA (ERβ [2]): > 2 fold | decrease of basal dsRED2 mRNA transcription (ERβ [2]): > 2 fold

CCCCOC(=O)c1ccccc1C(=O)OCc1ccccc1 [benzylbutylphthalate]
activity in BiFC ERβ dimerization assay (ERβ LBD): hits

CC(C)(c1ccc(O)cc1)c1ccc(O)cc1 [bisphenol A]
activity in GFP-ERβ:PRL-HeLa, EPA45 batch received (ERβ [1]; 2-h): inactive | activity in GFP-ERβ:PRL-HeLa, independent batches (ERβ [1]; independent batches of the chemicals): confirmed activity

CCC(C)(c1ccc(O)cc1)c1ccc(O)cc1 [bisphenol B]
activity in GFP-ERβ:PRL-HeLa, EPA45 batch received (ERβ [1]; 2-h): inactive | activation of dsRED2, independent batch (ERβ [2]; independent batch of the chemical): little activation

OC(c1ccc(Cl)cc1)(c1ccc(Cl)cc1)C(Cl)(Cl)Cl [dicofol]
activity in BiFC ERβ dimerization assay (ERβ LBD): hits

CC/C(=C(/CC)c1ccc(O)cc1)c1ccc(O)cc1 [diethylstilbestrol]
activity in GFP-ERβ:PRL-HeLa, EPA45 batch received (ERβ [1]; 2-h): inactive

OC(c1ccc(Cl)cc1)(c1cncnc1)c1ccccc1Cl (centres unmarked) [fenarimol]
activity in BiFC ERβ dimerization assay (ERβ LBD): hits

CN1CC[C@H](c2c(O)cc(O)c3c(=O)cc(-c4ccccc4Cl)oc23)[C@H](O)C1 [flavopirodol]
decrease of E2-induced stimulation of dsRED2 mRNA (ERβ [2]): > 2 fold | decrease of basal dsRED2 mRNA transcription (ERβ [2]): > 2 fold

O=c1c(-c2ccc(O)cc2)coc2cc(O)cc(O)c12 [genistein, Genistein]
Liver GFP signal, number of zebrafish (zERβ2; 1 μM): 0 | Liver GFP signal, number of zebrafish (zERβ2; 10 μM): 12 | Liver GFP signal, number of zebrafish (zERβ2; 100 μM): 6 | tissue GFP signal (in words) ([3]; 1 μM): only heart valve signal | tissue GFP signal (in words) ([3]; 10 μM): heart valve and liver signal | Toxicity, number of zebrafish (zebrafish; 1 μM): 0 | Toxicity, number of zebrafish (zebrafish; 10 μM): 0 | Toxicity, number of zebrafish (zebrafish; 100 μM): 12

COc1ccc(C(c2ccc(OC)cc2)C(Cl)(Cl)Cl)cc1 [methoxychlor]
activity in BiFC ERβ dimerization assay (ERβ LBD): hits
